Literature values as cited in patent US20230192588A1, “CANNABIDIOLIC ACID (CBDA) DERIVATIVES AND USES THEREOF” (YISSUM RESEARCH DEVELOPMENT COMPANY OF THE HEBREW …, priority 2020, published 2023).

Tests used:
rats [1] = conditions: compared to CBDA, 5-HT1A receptor-dependent manner
rat models = conditions: oral ingestion of a low dose (1 mg/kg); two rat models
rats [2] = conditions: compared to CBDA, 5-HT1A receptor-dependent manner; remark: listed apart in the source

## C=C(C)[C@@H]1CCC(C)=C[C@H]1c1c(O)cc(CCCCC)c(C(=O)OC)c1O [HU-580, cannabidiolic acid methyl ester]
Rats [1]
  potency in suppressing signs of stress-induced anxiety: greater potency than CBDA
Rat models
  anti-depressant effect: potent anti-depressant effect
Rats [2]
  potency in suppressing signs of both acute and anticipatory nausea: greater potency than CBDA
